Measurements taken from PubChem BioAssay (NCI).
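Compound exposure: 48 hours, 5 concentrations, 96-well plates. Here, GI50 denotes the concentration required for 50% inhibition of growth. The concentration for full growth arrest is given as TGI.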

Legend:
Assay in all cases: NCI tumour cell line growth inhibition, 48 h; in the data active = GI50 below about 0.43 µM; inactive = the rest
NCI-H522 lung = tested on: NCI-H522 lung
TK-10 renal = tested on: TK-10 renal
MDA-MB-435 = tested on: MDA-MB-435
SF-268 CNS = tested on: SF-268 CNS
U251 CNS = tested on: U251 CNS
M14 melanoma = tested on: M14 melanoma
OVCAR-5 ovarian = tested on: OVCAR-5 ovarian
786-0 renal = tested on: 786-0 renal
A549 NSCLC = tested on: A549 NSCLC
HCC-2998 colon = tested on: HCC-2998 colon
HCT-116 colon = tested on: HCT-116 colon
KM12 colon = tested on: KM12 colon
MDA-MB-468 breast = tested on: MDA-MB-468 breast
OVCAR-3 ovarian = tested on: OVCAR-3 ovarian
SK-MEL-28 melanoma = tested on: SK-MEL-28 melanoma
T-47D breast = tested on: T-47D breast
SF-295 CNS = tested on: SF-295 CNS
SF-539 CNS = tested on: SF-539 CNS
SNB-19 CNS = tested on: SNB-19 CNS
EKVX NSCLC = tested on: EKVX NSCLC
MDA-MB-231 breast = tested on: MDA-MB-231 breast
SK-OV-3 ovarian = tested on: SK-OV-3 ovarian
SK-MEL-2 melanoma = tested on: SK-MEL-2 melanoma
CCRF-CEM leukemia = tested on: CCRF-CEM leukemia
SN12C renal = tested on: SN12C renal
SK-MEL-5 melanoma = tested on: SK-MEL-5 melanoma
NCI-H23 lung = tested on: NCI-H23 lung
IGROV1 ovarian = tested on: IGROV1 ovarian
HOP-62 NSCLC = tested on: HOP-62 NSCLC
RPMI-8226 leukemia = tested on: RPMI-8226 leukemia

CC12OOC(C)(OO1)C2CCC(=O)NCCCNc1ccnc2cc(Cl)ccc12 (centres undefined)
13.4 µM: TGI (T-47D breast)
inactive: GI50 (TK-10 renal) 4.62 µM | GI50 (MDA-MB-435) 4.84 µM | GI50 (SF-268 CNS) > 20 µM | GI50 (U251 CNS) > 20 µM | GI50 (M14 melanoma) 3.66 µM | GI50 (OVCAR-5 ovarian) > 20 µM | GI50 (786-0 renal) 3.5 µM | GI50 (A549 NSCLC) 4.22 µM | GI50 (HCC-2998 colon) > 20 µM | GI50 (HCT-116 colon) 5.56 µM | GI50 (KM12 colon) > 20 µM | GI50 (MDA-MB-468 breast) 3.6 µM | GI50 (OVCAR-3 ovarian) 2.97 µM | GI50 (SK-MEL-28 melanoma) > 20 µM | GI50 (T-47D breast) 4.35 µM | GI50 (SF-295 CNS) > 20 µM | GI50 (SF-539 CNS) 11.3 µM | GI50 (SNB-19 CNS) > 20 µM | GI50 (EKVX NSCLC) 3.8 µM | GI50 (MDA-MB-231 breast) 8.26 µM | GI50 (SK-OV-3 ovarian) > 20 µM | GI50 (SK-MEL-2 melanoma) > 20 µM | GI50 (CCRF-CEM leukemia) 4.51 µM | GI50 (SN12C renal) > 20 µM | GI50 (SK-MEL-5 melanoma) > 20 µM | GI50 (NCI-H23 lung) > 20 µM | GI50 (IGROV1 ovarian) 7.07 µM | GI50 (HOP-62 NSCLC) > 20 µM | GI50 (RPMI-8226 leukemia) 9.51 µM
5.83 µM: TGI (OVCAR-3 ovarian)
9.86 µM: TGI (A549 NSCLC)
14.5 µM: TGI (TK-10 renal)
16.2 µM: TGI (MDA-MB-435)
7.16 µM: TGI (786-0 renal)
17.6 µM: TGI (HCT-116 colon)
14.1 µM: TGI (CCRF-CEM leukemia)
8.97 µM: TGI (MDA-MB-468 breast)
7.4 µM: TGI (M14 melanoma)
5.59 µM: TGI (NCI-H522 lung)
> 20 µM: TGI (SF-268 CNS) | TGI (U251 CNS) | TGI (OVCAR-5 ovarian) | TGI (HCC-2998 colon) | TGI (KM12 colon) | TGI (SK-MEL-28 melanoma) | TGI (SF-295 CNS) | TGI (SF-539 CNS) | TGI (SNB-19 CNS) | TGI (MDA-MB-231 breast) | TGI (SK-OV-3 ovarian) | TGI (SK-MEL-2 melanoma) | TGI (SN12C renal) | TGI (SK-MEL-5 melanoma) | TGI (NCI-H23 lung) | TGI (IGROV1 ovarian) | TGI (HOP-62 NSCLC) | TGI (RPMI-8226 leukemia)
7.99 µM: TGI (EKVX NSCLC)
